This is an account of results in US11497788B2, “Supramolecular glycosaminoglycans” (Northwestern University, priority 2015, dated 2022).

In assay [1] the test system is ALP and Osteocalcin (OCN) gene expression in C2C12 cells. Description: Quantitative RT-PCR of ALP and Osteocalcin in C2C12 cells. The assay is classed as cell-based, mouse. The following applies: relative to heparin or PA nanofibers displaying uncharged GlcNAc; day 3. The procedure:
(§1) C2C12 Cell Culture: C2C12 mouse myoblasts (ATCC) were maintained in Dulbecco's Modified Eagle's Medium with high glucose and L-glutamine (DMEM, ATCC), supplemented with 100 U/mL of penicillin and 100 μg/mL streptomycin (P/S, Life Technologies) and 10% heat inactivated FBS (Life Technologies), and passaged at 80-90% confluence. Media was changed every 2 days. Passages 3 to 8 were used for experiments. Cells were grown at 37° C., 5% CO2 in a humidified atmosphere. Cells were detached following a 3 minute incubation at 37° C. with 0.05% Trypsin-EDTA (Life Technologies), then resuspended in DMEM (10% FBS). Unless stated otherwise, cells were seeded at 75,000 cells/mL (400 μL/well in a 48-well plate), and allowed to attach for a minimum of 3 hours prior to experiments.
C2C12 Osteoblast Differentiation: PA samples were thermally annealed as described for Cryo-TEM. […] Cells were cultured for 3 days without changing the media, and osteoblast differentiation was assessed.
Quantitative RT-PCR: The gene expression levels were determined by real-time, reverse-transcription-PCR using an iQ5 Real-Time PCR Detection System (Bio-Rad). […] To confirm the specificity of the amplified products, melting curves were performed by cooling samples at 55° C. for 30 s and then increasing the temperature to 94° C. at 0.5° C./sec with continuous fluorescence measurement. […]

The test system of assay [2] is BMP-2 signaling in C2C12 cells. Description: C2C12 osteoblast differentiation with BMP-2, alkaline phosphatase (ALP) activity. The assay is classed as cell-based, mouse. The following applies: C2C12, BMP-2 75 ng/mL, 3 days. The procedure: as §1
C2C12 Osteoblast Differentiation: PA samples were thermally annealed as described for Cryo-TEM. PA solutions were spun down, pipetted for homogeneous mixing, then diluted to 1 mM with DMEM (no FBS). In a 1.5 mL microcentrifuge tube, PA solutions were further diluted with DMEM (5% FBS), gently vortexed, and appropriate amounts of GFs (20 μg/mL) were added to yield [PA]=125 μM and [GF]=375 ng/mL. For mixing, the microcentrifuge tube was gently inverted several times by hand. Following, cells were treated by adding a 100 μl, of the PA/GF mixture per well (48-well plate), yielding a final 500 μl, differentiation medium with [PA]=25 μM and [GF]=75 ng/mL. For controls, the initial 5 mM PA solution was substituted with either PBS alone (saline) or heparin in PBS at appropriate concentrations. Cells were cultured for 3 days without changing the media, and osteoblast differentiation was assessed.
Alkaline Phosphatase Activity: Alkaline phosphatase (ALP) activity was measured as a marker of osteoblast differentiation (ref. 38; incorporated by reference in its entirety). On day 3, media was removed, and cells were lysed with a 100 μL, of M-PER Mammalian Protein Extraction Reagent (Life Technologies), supplemented with 1×Halt Protease Inhibitor Cocktail (Thermo Fisher Scientific), for 30 minutes on an orbital shaker. A 20 μL, volume of the cell lysate was incubated with 200 μL, of the QUANTI-Blue colorimetric ALP assay (InvivoGen) for 30 minutes to 2 hours at 37° C., in duplicates. The ALP activity was assessed by reading the OD at 630 nm with Cytation3 microplate reader (BioTek). Data were normalized to the respective endogenous DNA levels using Quant-iT PicoGreen dsDNA Assay Kit (Life Technologies). Two separate experiments with 4 replicates each were averaged for statistical analysis. […]

As to “3,4,6S-GlcNAc PA (VVAAEEK) [PA 1, glycosylated peptide amphiphile: Alkyne PA click-conjugated with trisulfated monosaccharide 1]”, in assay [1], the “ALP mRNA expression” value is recorded as “higher expressions” and the “osteocalcin mRNA expression” value is “higher expressions”. Moreover, the “effect on BMP-2 activity / osteoblast differentiation (in words)” value in assay [2] is reported as “dramatically amplified”.
